The values that follow come from ChEMBL document CHEMBL1137586, “Aminomethyl tetrahydronaphthalene ketopiperazine MCH-R1 antagonists--Increasing selectivity over hERG” (Bioorg Med Chem Lett, 2007).

SMILES strings stand for the structures. Bounds are passed on as bounds.

Data set [1] has as its target T1, Melanin-concentrating hormone receptor 1 (Homo sapiens, UniProt Q99705). Put plainly: Functional antagonism of MCH-R1 expressed in HEK293 cells. Format: cell-based.
The subject of a further data set is Mus musculus. Nature of the data set: Percent weight loss in DIO mice 4 days after 20 mg/kg peroral dose. Format: functional. The note with it: route oral.
The nature of data set [2]: Serum concentration in DIO mice 2 hr post 20mg/kg peroral dose. Format: ADME, organism-based. The note with it: mouse, po, read-out: Serum conc.
Data set [3] addresses T1, Melanin-concentrating hormone receptor 1. Nature of the data set: Inhibition of binding to MCH-R1.
Data set [4] addresses T2, Voltage-gated inwardly rectifying potassium channel KCNH2 (Homo sapiens, UniProt Q12809). Put plainly: Inhibition of binding to hERG.
For another data set, the target named is hERG (KCNH2) (Homo sapiens, UniProt Q12809). Put plainly: Percent inhibition of binding to hERG at10uM.
Data set [5] is described as follows: Relative concentration in DIO mouse brain over serum 2 hr post 20mg/kg peroral dose. The following applies: po. Format: ADME, organism-based.
The target of data set [6] is T2, Voltage-gated inwardly rectifying potassium channel KCNH2. Nature of the data set: Prolonged QTc interval in anaesthetized dogs after 15min infusion at 30 mg/kg compared to vehicle. The note with it: dog, in vivo, iv, 0.25 h.

One may read the Ki as the dissociation constant of the complex between target and ligand, obtained from inhibition or displacement. A low value points to a stronger hold on the target. One may read the IC50 as the midpoint of a concentration-inhibition curve. Read a low IC50 as greater potency in that assay. A word on the inhibition: it is the change of the read-out against control, counted positive when it falls. A high value points to strong suppression. The term Kp denotes the ratio of the level in a tissue or fluid to that in plasma or blood.

T2 sequence (Q12809 whole entry): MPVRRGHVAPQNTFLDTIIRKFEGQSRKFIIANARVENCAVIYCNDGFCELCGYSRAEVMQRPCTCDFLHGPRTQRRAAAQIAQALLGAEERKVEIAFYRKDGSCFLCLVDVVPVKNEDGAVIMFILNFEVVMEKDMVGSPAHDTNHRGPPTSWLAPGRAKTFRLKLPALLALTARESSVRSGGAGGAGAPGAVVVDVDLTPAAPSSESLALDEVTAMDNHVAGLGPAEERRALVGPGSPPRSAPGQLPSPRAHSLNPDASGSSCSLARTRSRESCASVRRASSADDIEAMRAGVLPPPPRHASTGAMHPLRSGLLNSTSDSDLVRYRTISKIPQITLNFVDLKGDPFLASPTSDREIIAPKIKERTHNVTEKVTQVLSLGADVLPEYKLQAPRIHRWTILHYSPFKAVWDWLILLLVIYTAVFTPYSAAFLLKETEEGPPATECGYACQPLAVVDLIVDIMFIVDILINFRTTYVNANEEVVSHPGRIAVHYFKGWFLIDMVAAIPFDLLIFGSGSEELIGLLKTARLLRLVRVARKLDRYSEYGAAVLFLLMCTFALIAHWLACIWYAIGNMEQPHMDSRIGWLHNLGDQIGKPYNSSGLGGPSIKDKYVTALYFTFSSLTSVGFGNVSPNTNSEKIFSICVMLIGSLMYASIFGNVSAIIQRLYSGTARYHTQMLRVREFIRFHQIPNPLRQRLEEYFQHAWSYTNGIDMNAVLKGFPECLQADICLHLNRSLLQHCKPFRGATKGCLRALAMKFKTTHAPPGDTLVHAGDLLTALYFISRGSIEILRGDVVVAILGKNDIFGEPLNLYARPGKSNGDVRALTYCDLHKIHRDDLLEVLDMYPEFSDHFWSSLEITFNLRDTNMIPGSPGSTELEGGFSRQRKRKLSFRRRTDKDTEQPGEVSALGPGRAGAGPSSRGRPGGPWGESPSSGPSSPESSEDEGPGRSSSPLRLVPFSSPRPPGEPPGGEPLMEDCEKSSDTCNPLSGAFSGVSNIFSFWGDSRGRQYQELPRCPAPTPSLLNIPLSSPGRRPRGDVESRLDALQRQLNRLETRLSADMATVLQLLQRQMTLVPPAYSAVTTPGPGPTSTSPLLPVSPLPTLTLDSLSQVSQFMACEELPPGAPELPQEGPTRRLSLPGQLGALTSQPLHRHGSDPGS
T1 sequence (Q99705 whole entry): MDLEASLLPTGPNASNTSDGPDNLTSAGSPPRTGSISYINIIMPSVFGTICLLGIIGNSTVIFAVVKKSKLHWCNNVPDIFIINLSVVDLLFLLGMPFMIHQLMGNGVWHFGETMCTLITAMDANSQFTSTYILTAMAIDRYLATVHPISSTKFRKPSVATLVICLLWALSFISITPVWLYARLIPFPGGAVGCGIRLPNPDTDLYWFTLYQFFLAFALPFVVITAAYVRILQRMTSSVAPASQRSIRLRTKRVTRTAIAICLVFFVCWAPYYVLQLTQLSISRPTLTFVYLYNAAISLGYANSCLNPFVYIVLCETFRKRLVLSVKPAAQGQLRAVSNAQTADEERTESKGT
Sequence of hERG (KCNH2) (Q12809 whole entry): as the sequence (Q12809 whole entry) above

`CCN(CC)Cc1ccc2c(c1)CC[C@H](N1CCN(CCc3cccc(C(F)(F)F)c3)CC1=O)C2` had a Ki in data set [1] of 0.093 µM.

In the data set on Mus musculus, `CCN(CC)Cc1ccc2c(c1)CC[C@H](N1CCN(CCc3ccc(F)cc3)CC1=O)C2` had a Weight loss of 4%. Moreover, the concentration at 2 h in data set [2] stood at 2 µM. Also, in data set [3], the Ki was determined as 0.015 µM.

In data set [4], `O=C1CN(CCc2ccc(F)cc2)CCN1[C@H]1CCc2cc(Cn3ccnc3)ccc2C1` had an IC50 of 4 µM. For the same compound, the affinity in data set [1], expressed as Ki, was 52 µM.

In data set [1], `CCN(CC)Cc1ccc2c(c1)CC[C@H](N1CCN(CCC3CCCS3)CC1=O)C2` (stereo partly drawn) showed a Ki of 0.047 µM.

For the compound `O=C1CN(CCc2ccc(F)cc2)CCN1[C@H]1CCc2cc(CNCC(F)(F)F)ccc2C1`, on hERG (KCNH2), the inhibition at 10 µM is greater than 50%.

`O=C1CN(CCc2ccc(F)cc2)CCN1[C@H]1CCc2cc(CN3CCC(C(F)(F)F)CC3)ccc2C1` gave an IC50 in data set [4] of 2 µM. The same compound had an inhibitory constant (Ki) in data set [1] of 8.7 µM.

In the data set with Mus musculus, `O=C1CN(CCc2ccc(F)cc2)CCN1[C@H]1CCc2cc(CN3CCS(=O)(=O)CC3)ccc2C1` returned a Weight loss of less than 2%. The concentration at 2 h in data set [2] was determined as 16 µM. The compound also showed an IC50 in data set [4] of 24 µM.

Regarding `O=C1CN(CCc2ccc(F)cc2)CCN1[C@H]1CCc2cc(CN3CCOCC3)ccc2C1`, the IC50 in data set [4] is 11 µM. The same compound came in with a Ki in data set [1] of 15 µM.

For the compound `CCN(CC)Cc1ccc2c(c1)CC[C@H](N1CCN(CCC3CCCCC3)CC1=O)C2`, the Ki in data set [1] is 0.032 µM.

For `CS(=O)(=O)N1CCN(Cc2ccc3c(c2)CC[C@H](N2CCN(CCc4ccc(F)cc4)CC2=O)C3)CC1`, in the data set on Mus musculus, the Weight loss was 3%. Moreover, the concentration at 2 h in data set [2] worked out at 9 µM. Further, the IC50 in data set [4] was 13 µM. In data set [1], this compound displayed a Ki of 30 µM.

As for `CCN(CC)Cc1ccc2c(c1)CC[C@H](N1CCN(CCc3ccc(Cl)cc3)CC1=O)C2`, the Ki in data set [1] was 0.0033 µM.

On to `CN(C)C(=O)C(CO)N(C)Cc1ccc2c(c1)CC[C@H](N1CCN(CCc3ccc(F)cc3)CC1=O)C2` (stereo partly drawn), for which the IC50 in data set [4] came to 25 µM.

Take `CC(=O)N1CCN(Cc2ccc3c(c2)CC[C@H](N2CCN(CCc4ccc(F)cc4)CC2=O)C3)CC1`: the Weight loss in the data set with Mus musculus was less than 2%. In data set [5], the Kp at 2 h is 0.3. Further, the concentration at 2 h in data set [2] came out at 4 µM. This compound showed an IC50 in data set [4] of 25 µM. This compound also had a Ki in data set [1] of 16 µM. Also, in data set [6], the QT interval result was “Active p<0.05”.
